# Source: US12290513B2, “Therapeutic methods and compositions for treating movement disorders” (Vima Therapeutics, Inc., priority 2023, dated 2025)
# Read-outs that look alike come from different tables or passages of the source.
# Legend:
# [1] = Whole blood stability, rat; conditions: rat, blood; for Remaining Percentages (%) 0 min: 0 h, 1 μM
# Protocol: Procedures for blood Stability. • A. 398 μL of blood from each species was added to an incubation plate, which was pre-warmed at 37C for 15 minutes. • B. After the pre-incubation, 2 μL of working solution (test compounds or control compounds) was spiked to 398 μL of blood to reach a final concentration of 1 μM for test compounds and 5 μM for control compounds. The final concentration of organic solvents is 0.5%. The assays were performed in duplicate. • C. The reaction samples were incubated at 37C. • D. Aliquots of 50 μL were taken from the reaction samples at 0, 15, 30, 60 and 120 minutes. The reaction was stopped by the addition of 50 μL ultrapure water and 400 μL cold acetonitrile. • E. All samples were vortexed for 10 minutes, followed by centrifugation at 3,220 g for 40 minutes to precipitate proteins. 100 μL of the supernatant was then transferred to a new plate. The supernatant was diluted with ultrapure water as needed for detection by LC-MS/MS. Sample Analysis
# Samples were analyzed by LC-MS/MS to measure the concentration of the test compounds.
# All calculations were carried out using Microsoft Excel and according to standard analysis methods that are known in the art.
# [2] = target: kappa (h) (KOP) (agonist radioligand) (Homo sapiens, UniProt P41145); conditions: at the tested concentration, negative values set to zero
# Chain of kappa (h) (KOP) (agonist radioligand) (P41145 whole entry): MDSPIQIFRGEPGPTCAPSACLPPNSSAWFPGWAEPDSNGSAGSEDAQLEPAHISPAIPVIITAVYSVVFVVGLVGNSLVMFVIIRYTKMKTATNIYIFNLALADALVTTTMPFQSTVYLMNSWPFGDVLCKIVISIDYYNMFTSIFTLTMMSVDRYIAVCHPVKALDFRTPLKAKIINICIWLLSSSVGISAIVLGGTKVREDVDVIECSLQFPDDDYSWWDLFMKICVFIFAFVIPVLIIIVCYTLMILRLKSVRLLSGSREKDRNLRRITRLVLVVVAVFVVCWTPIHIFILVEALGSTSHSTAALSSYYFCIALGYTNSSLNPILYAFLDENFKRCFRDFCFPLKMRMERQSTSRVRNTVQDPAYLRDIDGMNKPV
# [3] = target: D2L (h) (antagonist radioligand) (Homo sapiens, UniProt P14416); conditions: at the tested concentration; negative values set to zero
# Chain of D2L (h) (antagonist radioligand) (P14416 whole entry): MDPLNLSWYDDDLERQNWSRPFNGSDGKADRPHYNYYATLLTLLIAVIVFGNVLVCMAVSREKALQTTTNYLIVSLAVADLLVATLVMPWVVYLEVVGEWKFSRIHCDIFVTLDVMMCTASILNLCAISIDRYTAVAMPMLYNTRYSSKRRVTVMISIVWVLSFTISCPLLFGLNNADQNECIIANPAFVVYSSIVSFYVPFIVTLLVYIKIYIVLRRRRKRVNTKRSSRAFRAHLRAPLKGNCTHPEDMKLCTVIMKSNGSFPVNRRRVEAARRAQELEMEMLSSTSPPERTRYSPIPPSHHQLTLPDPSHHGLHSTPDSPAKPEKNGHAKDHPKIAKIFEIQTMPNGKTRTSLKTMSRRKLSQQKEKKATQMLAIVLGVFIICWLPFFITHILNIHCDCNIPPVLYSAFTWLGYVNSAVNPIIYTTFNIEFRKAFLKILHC
# CYP2A6 = target: T1, CYP2A6 (Homo sapiens, UniProt P11509); assay: Incubation with recombinant CYP2A6; conditions: for t1/2: unit not given
# T1 sequence (P11509 1-494): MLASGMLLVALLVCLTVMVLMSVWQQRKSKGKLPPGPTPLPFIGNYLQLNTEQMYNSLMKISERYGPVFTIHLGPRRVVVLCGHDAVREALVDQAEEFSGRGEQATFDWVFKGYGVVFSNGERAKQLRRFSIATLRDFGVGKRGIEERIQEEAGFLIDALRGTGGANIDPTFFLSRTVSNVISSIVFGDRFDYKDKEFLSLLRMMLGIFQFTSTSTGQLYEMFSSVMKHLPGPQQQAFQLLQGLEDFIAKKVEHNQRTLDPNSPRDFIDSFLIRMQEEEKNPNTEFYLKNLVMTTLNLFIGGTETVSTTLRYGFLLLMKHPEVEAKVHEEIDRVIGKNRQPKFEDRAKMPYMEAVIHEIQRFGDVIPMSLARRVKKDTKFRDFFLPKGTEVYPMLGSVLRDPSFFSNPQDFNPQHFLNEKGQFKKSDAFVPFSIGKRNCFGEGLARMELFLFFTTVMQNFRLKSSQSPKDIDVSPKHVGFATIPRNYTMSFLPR
# CYP2B6 = target: T2, CYP2B6 (Homo sapiens, UniProt P20813); assay: Incubation with recombinant CYP2B6; conditions: for t1/2: unit not given
# T2 sequence (P20813 1-491): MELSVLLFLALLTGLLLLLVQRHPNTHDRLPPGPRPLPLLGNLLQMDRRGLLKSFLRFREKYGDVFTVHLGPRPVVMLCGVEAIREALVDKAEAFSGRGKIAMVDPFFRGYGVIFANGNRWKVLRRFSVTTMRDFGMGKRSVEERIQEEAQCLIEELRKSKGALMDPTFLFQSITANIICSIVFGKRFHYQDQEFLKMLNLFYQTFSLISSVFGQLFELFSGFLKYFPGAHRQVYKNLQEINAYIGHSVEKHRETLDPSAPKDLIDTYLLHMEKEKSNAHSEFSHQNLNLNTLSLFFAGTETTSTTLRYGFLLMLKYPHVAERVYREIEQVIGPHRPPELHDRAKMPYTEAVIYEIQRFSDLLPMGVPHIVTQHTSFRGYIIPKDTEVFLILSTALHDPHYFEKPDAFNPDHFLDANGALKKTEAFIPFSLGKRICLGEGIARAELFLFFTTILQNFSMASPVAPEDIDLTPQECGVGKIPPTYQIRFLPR
# CYP2C8 = target: T3, CYP2C8 (Homo sapiens, UniProt P10632); assay: Incubation with recombinant CYP2C8; conditions: for t1/2: unit not given
# T3 sequence (P10632 1-490): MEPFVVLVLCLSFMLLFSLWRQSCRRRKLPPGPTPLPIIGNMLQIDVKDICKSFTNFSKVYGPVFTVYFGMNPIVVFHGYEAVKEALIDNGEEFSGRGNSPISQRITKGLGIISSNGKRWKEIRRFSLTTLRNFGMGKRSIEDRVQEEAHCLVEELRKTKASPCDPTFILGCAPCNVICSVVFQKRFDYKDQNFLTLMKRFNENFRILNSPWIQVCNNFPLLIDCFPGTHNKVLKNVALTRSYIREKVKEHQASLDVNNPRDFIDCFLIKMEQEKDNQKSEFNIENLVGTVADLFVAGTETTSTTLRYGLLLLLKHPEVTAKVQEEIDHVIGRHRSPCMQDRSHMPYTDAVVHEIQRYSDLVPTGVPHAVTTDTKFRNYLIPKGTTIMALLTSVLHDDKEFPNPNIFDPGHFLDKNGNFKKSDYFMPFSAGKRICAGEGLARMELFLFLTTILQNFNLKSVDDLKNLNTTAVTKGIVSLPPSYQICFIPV
SMILES,t1/2 [1],Remaining Percentages (%) 0 min [1],"signal, kappa (h) (KOP) (agonist radioligand) [2]","signal, kappa (h) (KOP) (agonist radioligand) ([2]; listed as R-THP)","signal, D2L (h) (antagonist radioligand) [3]",CLint (CYP2A6),t1/2 (CYP2A6),CLint (CYP2B6),t1/2 (CYP2B6),CLint (CYP2C8),t1/2 (CYP2C8)
"O[C@@](CCN1CCCCC1)(c1ccccc1)C1CCCCC1 [(R)-THP, (R)-trihexyphenidyl]",∞,100.00%,greater than 25%,26.19%,0.32%,0.00 µL/min/pmol,∞,0.00 µL/min/pmol,∞,0.00 µL/min/pmol,∞
"C[C@@H](C[N+](C)(C)C)OC(N)=O.[Cl-] [(S)-BTC, (S)-bethanechol]",∞,100.00%,,,,,,,,,
"O[C@](CCN1CCCCC1)(c1ccccc1)C1CCCCC1 [(S)-THP, (S)-trihexyphenidyl]",,,34.64%,,28.50%,0.00 µL/min/pmol,∞,0.00 µL/min/pmol,∞,0.00 µL/min/pmol,∞
